Experimental findings from ChEMBL document CHEMBL1201862, “PubChem BioAssay data set” (2004) are described below.

Assay type in all cases: functional
Experiment [1] has as its target T1, Heat shock factor protein 1 (Mus musculus, UniProt P38532).
T1 sequence (P38532 whole entry): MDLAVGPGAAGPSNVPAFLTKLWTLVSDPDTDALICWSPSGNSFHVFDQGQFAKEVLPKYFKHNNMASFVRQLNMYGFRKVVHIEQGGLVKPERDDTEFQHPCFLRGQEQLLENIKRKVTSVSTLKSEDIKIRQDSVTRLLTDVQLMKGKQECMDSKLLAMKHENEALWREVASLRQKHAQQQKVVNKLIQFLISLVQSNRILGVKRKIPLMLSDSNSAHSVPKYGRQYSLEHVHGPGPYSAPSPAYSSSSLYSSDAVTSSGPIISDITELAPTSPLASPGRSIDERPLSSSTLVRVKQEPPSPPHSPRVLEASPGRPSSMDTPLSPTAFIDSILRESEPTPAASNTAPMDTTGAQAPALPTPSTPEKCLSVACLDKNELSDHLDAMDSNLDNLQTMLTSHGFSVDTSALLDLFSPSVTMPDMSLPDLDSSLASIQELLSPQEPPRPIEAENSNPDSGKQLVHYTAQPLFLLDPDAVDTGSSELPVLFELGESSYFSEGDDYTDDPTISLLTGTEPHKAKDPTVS
Description: inhibition of MG132-induced HSE-luciferase signal, confirmation, cell-based, NIH3T3, luminescence, dose retest (AID 2382).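 Further: NIH3T3 fibroblasts with HSF1-driven luciferase reporter stressed by proteasome inhibitor MG132; luminescence from HSF1-driven luciferase expression after 8 hours of MG132 stress.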

A further experiment deals with HEK293. Put plainly: inhibitors of LMP1-driven NF-kB reporter, dose response, cell-based, HEK293, luciferase, cherry-pick (AID 588343). The following applies: Homo sapiens.
The target in a further experiment is Activated CDC42 kinase 1 (Homo sapiens, UniProt Q07912). Put plainly: Navigating the Kinome. Panel member name: ACK1.
For experiment [2], the target named is Serine/threonine-protein kinase DCLK1 (Homo sapiens, UniProt O15075).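 Further: affinity for DCLK1 (listed as DCAMKL1) measured as one member of a kinome-wide kinase profiling panel.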
Experiment [3] concerns the target Receptor tyrosine-protein kinase erbB-2 (Homo sapiens, UniProt P04626). Description: Navigating the Kinome. Panel member name: ERBB2.
Experiment [4] has as its target Cell division cycle 7-related protein kinase (Homo sapiens, UniProt O00311).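 Further: value obtained from a kinome-wide kinase panel.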
Experiment [5] deals with Insulin-like growth factor 1 receptor (Homo sapiens, UniProt P08069). Description: Navigating the Kinome. Panel member name: IGF1R.
Experiment [6] concerns the target Interleukin-1 receptor-associated kinase 4 (Homo sapiens, UniProt Q9NWZ3).
The target in experiment [7] is Serine/threonine-protein kinase PLK4 (Homo sapiens, UniProt O00444).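 Further: PLK4 measured as one member of a kinome-wide kinase profiling panel.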
Experiment [8] concerns the target Mitogen-activated protein kinase kinase kinase kinase 5 (Homo sapiens, UniProt Q9Y4K4).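 Further: measured as one member of a kinome-spanning kinase panel.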
In experiment [9] the target is 5'-AMP-activated protein kinase catalytic subunit alpha-1 (Homo sapiens, UniProt Q13131).
The target in experiment [10] is Mitogen-activated protein kinase 8 (Homo sapiens, UniProt P45983).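 Further: value comes from one member of a kinome-wide kinase profiling panel.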
The target of experiment [11] is G protein-coupled receptor kinase 5 (Homo sapiens, UniProt P34947). Description: Navigating the Kinome. Panel member name: GPRK5.
Experiment [12] addresses Serine/threonine-protein kinase pim-1 (Homo sapiens, UniProt P11309).
Experiment [13] deals with Serine/threonine-protein kinase pim-2 (Homo sapiens, UniProt Q9P1W9).
The target of the next experiment is Aurora kinase B (Homo sapiens, UniProt Q96GD4).
For experiment [14], the target named is Proto-oncogene tyrosine-protein kinase ROS (Homo sapiens, UniProt P08922).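 Further: ROS1 tested as one member of a kinome-wide kinase panel.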
Experiment [15] has as its target Proto-oncogene tyrosine-protein kinase Src (Homo sapiens, UniProt P12931).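 Further: SRC entry within a kinome-wide kinase profiling panel.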
The target in experiment [16] is Serine/threonine-protein kinase 17A (Homo sapiens, UniProt Q9UEE5).
The target of experiment [17] is Calcium/calmodulin-dependent protein kinase type II subunit alpha (Homo sapiens, UniProt Q9UQM7). Put plainly: Navigating the Kinome. Panel member name: CAMK2A.
Experiment [18] deals with Megakaryocyte-associated tyrosine-protein kinase (Homo sapiens, UniProt P42679).
The target of experiment [19] is Mitogen-activated protein kinase 9 (Homo sapiens, UniProt P45984).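 Further: value from a kinome panel profiling assay, MAPK9 panel entry.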
The target in experiment [20] is Fibroblast growth factor receptor 3 (Homo sapiens, UniProt P22607).
Experiment [21] addresses Cyclin-dependent kinase 1 (Homo sapiens, UniProt P06493).
Experiment [22] has as its target MAP kinase-activated protein kinase 5 (Homo sapiens, UniProt Q8IW41).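 Further: measured as one member of a kinome panel.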
The target in experiment [23] is Serine/threonine-protein kinase Chk1 (Homo sapiens, UniProt O14757).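 Further: measured as one member of a kinome-wide kinase profiling panel.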
In experiment [24] the target is Tyrosine-protein kinase receptor TYRO3 (Homo sapiens, UniProt Q06418).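 Further: TYRO3 value obtained as one member of a kinome-wide profiling panel.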
Experiment [25] deals with Tyrosine-protein kinase Lyn (Homo sapiens, UniProt P07948).
Experiment [26] has as its target cAMP-dependent protein kinase catalytic subunit alpha (Homo sapiens, UniProt P17612).

Activity calls are given as the source filed them.

Chain of Activated CDC42 kinase 1 (Q07912 whole entry): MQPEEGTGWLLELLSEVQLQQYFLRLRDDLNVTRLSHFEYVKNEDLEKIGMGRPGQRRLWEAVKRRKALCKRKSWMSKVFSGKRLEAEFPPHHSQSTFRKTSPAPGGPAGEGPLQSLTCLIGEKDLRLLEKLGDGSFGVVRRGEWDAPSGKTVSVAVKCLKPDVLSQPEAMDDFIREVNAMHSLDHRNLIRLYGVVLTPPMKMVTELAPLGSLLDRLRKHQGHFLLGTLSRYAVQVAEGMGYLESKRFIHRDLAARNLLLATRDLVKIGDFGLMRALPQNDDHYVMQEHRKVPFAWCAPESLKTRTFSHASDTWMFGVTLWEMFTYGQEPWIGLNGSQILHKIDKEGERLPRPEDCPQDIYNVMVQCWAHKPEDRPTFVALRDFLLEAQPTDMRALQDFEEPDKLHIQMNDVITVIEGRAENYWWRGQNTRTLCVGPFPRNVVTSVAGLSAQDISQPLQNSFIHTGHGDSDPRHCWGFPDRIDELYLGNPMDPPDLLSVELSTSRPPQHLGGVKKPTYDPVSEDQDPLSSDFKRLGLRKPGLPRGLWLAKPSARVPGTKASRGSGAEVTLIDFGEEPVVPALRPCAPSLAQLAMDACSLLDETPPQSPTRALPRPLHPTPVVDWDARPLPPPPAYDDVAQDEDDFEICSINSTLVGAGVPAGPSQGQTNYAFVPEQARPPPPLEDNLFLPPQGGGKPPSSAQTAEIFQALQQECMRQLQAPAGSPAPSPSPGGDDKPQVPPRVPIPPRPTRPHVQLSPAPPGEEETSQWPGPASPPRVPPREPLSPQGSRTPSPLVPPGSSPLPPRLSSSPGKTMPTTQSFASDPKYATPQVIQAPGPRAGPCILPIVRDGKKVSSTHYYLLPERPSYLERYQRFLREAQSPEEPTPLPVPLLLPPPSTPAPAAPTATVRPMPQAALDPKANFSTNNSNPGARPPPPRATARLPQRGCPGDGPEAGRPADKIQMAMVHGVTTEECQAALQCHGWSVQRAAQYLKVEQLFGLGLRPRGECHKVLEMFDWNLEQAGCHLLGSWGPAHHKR
Chain of Tyrosine-protein kinase receptor TYRO3 (Q06418 whole entry): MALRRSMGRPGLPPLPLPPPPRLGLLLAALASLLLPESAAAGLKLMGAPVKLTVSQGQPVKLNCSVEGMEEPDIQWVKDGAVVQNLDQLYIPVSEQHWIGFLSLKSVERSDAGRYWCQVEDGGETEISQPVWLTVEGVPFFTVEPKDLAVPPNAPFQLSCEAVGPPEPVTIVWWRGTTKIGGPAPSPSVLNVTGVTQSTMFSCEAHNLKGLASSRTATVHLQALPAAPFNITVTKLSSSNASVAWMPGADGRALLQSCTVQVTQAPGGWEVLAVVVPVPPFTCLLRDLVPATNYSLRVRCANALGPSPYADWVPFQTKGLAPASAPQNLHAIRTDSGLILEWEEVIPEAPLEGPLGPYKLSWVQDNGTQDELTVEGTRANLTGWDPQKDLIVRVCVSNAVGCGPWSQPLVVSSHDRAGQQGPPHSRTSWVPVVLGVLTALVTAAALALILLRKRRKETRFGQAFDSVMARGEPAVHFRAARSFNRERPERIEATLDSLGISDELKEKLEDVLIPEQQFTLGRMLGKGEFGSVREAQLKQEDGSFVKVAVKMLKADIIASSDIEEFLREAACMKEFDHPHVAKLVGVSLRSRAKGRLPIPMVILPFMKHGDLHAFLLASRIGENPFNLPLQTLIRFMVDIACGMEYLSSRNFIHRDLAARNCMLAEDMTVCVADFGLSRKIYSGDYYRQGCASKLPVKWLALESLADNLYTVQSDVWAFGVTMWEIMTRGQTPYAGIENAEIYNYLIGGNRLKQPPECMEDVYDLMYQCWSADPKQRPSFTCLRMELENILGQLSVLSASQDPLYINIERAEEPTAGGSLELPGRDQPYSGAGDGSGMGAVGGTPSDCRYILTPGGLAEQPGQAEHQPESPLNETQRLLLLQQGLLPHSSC
Chain of Megakaryocyte-associated tyrosine-protein kinase (P42679 whole entry): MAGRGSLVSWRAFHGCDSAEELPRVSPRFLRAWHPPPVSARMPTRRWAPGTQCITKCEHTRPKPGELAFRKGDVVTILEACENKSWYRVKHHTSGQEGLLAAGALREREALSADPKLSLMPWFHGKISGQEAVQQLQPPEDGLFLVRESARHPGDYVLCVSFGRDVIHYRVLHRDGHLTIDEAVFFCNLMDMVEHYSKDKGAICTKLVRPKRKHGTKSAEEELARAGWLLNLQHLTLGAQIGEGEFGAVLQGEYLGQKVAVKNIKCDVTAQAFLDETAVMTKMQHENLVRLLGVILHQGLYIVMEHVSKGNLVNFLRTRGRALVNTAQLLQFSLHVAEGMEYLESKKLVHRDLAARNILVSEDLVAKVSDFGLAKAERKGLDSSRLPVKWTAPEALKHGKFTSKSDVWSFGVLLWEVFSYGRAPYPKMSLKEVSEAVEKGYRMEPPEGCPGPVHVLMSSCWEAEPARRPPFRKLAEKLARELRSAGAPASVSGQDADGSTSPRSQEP
Chain of Aurora kinase B (Q96GD4 whole entry): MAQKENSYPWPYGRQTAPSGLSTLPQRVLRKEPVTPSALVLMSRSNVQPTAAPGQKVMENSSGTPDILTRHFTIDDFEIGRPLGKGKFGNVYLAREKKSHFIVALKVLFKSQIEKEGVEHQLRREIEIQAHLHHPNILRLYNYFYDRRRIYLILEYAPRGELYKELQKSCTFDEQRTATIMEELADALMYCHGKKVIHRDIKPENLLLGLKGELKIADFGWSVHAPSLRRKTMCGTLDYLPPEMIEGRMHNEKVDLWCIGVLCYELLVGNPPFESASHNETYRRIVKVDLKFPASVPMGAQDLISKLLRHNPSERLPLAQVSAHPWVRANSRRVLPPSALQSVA
Chain of 5'-AMP-activated protein kinase catalytic subunit alpha-1 (Q13131 whole entry): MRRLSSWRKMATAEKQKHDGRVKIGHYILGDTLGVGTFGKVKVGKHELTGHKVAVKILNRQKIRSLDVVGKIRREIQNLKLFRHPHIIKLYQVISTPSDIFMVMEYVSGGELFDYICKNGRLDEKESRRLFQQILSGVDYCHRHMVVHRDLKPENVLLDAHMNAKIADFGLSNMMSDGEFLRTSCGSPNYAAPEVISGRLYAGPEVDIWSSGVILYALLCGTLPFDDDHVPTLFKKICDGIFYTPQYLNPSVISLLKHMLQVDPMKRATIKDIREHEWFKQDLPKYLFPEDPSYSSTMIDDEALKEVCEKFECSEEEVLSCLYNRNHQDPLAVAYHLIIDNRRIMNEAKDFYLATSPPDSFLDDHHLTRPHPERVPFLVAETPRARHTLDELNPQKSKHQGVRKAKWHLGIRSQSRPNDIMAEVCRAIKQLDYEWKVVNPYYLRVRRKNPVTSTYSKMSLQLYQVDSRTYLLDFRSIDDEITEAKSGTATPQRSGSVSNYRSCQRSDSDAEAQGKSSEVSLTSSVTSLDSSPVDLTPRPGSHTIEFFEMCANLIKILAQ
Chain of Interleukin-1 receptor-associated kinase 4 (Q9NWZ3 whole entry): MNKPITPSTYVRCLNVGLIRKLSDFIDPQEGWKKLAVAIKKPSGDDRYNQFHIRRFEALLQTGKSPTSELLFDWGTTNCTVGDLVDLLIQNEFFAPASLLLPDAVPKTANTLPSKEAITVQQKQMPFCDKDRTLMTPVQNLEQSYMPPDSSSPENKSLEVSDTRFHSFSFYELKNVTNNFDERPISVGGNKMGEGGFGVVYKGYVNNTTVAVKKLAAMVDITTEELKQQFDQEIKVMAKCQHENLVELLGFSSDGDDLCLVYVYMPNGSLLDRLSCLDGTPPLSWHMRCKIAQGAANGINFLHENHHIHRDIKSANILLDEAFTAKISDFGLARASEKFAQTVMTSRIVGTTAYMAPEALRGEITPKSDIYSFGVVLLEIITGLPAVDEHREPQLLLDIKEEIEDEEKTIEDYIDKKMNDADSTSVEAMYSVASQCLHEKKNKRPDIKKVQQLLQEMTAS
Chain of Serine/threonine-protein kinase 17A (Q9UEE5 whole entry): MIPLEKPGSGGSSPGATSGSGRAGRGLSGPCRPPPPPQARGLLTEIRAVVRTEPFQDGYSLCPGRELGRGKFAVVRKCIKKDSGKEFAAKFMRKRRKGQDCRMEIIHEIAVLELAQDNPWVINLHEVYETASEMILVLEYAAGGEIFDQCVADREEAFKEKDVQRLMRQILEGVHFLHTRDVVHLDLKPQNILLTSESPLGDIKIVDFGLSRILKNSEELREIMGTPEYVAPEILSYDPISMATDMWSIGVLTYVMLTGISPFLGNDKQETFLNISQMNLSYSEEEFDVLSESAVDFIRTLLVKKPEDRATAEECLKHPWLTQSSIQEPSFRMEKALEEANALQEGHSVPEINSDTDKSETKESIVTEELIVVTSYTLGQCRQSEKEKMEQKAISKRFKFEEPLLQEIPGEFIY
Chain of G protein-coupled receptor kinase 5 (P34947 whole entry): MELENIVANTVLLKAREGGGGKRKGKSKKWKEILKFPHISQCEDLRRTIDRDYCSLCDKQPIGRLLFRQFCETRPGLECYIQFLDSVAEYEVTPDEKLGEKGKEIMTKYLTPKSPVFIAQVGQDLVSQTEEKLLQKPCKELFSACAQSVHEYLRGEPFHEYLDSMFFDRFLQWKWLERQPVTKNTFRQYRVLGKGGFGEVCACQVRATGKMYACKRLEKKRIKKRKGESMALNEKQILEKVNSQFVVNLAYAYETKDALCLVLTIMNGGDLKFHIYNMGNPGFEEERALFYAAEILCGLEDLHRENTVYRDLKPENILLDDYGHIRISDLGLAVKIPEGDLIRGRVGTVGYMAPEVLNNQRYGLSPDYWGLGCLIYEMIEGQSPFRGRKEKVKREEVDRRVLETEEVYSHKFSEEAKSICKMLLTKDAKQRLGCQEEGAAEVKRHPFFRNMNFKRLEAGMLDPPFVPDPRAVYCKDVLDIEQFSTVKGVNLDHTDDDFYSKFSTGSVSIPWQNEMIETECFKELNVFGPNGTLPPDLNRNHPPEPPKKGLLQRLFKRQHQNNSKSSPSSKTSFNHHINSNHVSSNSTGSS

Take `NS(=O)(=O)c1ccc(NC2=CC(=O)C(=O)c3ccccc32)cc1`: in [1], the EC50 was > 195000 nM (not active).

As to `O=C(N/N=C/c1ccc(O)cc1O)c1ccc(CN2C(=O)c3cccc4cccc2c34)cc1`, the concentration at half-maximal activity (AC50) with HEK293 is 6460 nM (active).

In the case of `Clc1cc(-c2c[nH]c3ncccc23)nc(NC2CCCCC2)n1`, the Ki on Activated CDC42 kinase 1 was > 3980 nM (inactive); in experiment [2] it was > 10000 nM (inactive); in experiment [3] it was > 1580 nM (inactive); in [4], 0.501 nM (active); in [5], > 2000 nM (inactive); in experiment [6], 158 nM (active). Also, the Ki was > 3980 nM (inactive) in experiment [7]; > 2000 nM (inactive) in experiment [8]; > 2000 nM (inactive) in experiment [9]; > 3160 nM (inactive) in [10]; > 3980 nM (inactive) in experiment [11]; > 5010 nM (inactive) in [12]. The Ki is > 2000 nM (inactive) in experiment [13]; > 6310 nM (inactive) on Aurora kinase B; > 2000 nM (inactive) in experiment [14]; > 2000 nM (inactive) in [15]; 1000 nM (active) in experiment [16]; 3160 nM (active) in [17]. In addition, the Ki was > 2000 nM (inactive) in experiment [18]; 3160 nM (active) in experiment [19]; > 2000 nM (inactive) in experiment [20]; 31.6 nM (active) in [21]; > 1580 nM (inactive) in experiment [22]; 3980 nM (active) in experiment [23]. In addition, the Ki in [24] was > 2510 nM (inactive); in [25], > 1580 nM (inactive); in [26], 251 nM (active).
